Source: US8871753B2, “Macrocyclic compounds and their use as kinase inhibitors” (Incyte Corporation, priority 2008, dated 2014)
Counter-ions that a name gives are not always drawn. Like-named read-outs stand apart in the source and are kept apart here.

Key:
Format in all cases: biochemical
[1] = biological target: T1, human JAK1 (a.a. 837-1142) (Homo sapiens, UniProt P23458); test: In vitro JAK kinase assay (HTRF, phosphorylation of a biotinylated peptide), JAK1; settings: read-out: JAK1 IC50
T1 construct: human JAK1 (a.a. 837-1142); His tag (N); made in house; host or cells: insect cells (baculovirus)
Procedure, shortened: (§1)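 Kinase activity was measured as phosphorylation of a biotinylated peptide, with ATP at 90 μM for JAK1, 30 μM for JAK2 and 3 μM for JAK3. Reactions ran 1 hr at room temperature, were stopped with EDTA plus SA-APC and Eu-Py20, and were read by HTRF after 40 minutes of antibody binding.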

TYK2 = TYK2 (Homo sapiens, UniProt P29597); test: TYK2 kinase inhibition (Table A1)
[2] = biological target: T2, human JAK3 (a.a. 781-1124) (Homo sapiens, UniProt P52333); test: In vitro JAK kinase assay (HTRF, phosphorylation of a biotinylated peptide), JAK3
T2 construct: JAK3 (a.a. 781-1124); His tag (N); made in house; host or cells: insect cells (baculovirus)
Procedure, shortened: as §1

[3] = biological target: T3, human JAK2 (a.a. 828-1132) (Homo sapiens, UniProt O60674); test: In vitro JAK kinase assay (HTRF, phosphorylation of a biotinylated peptide), JAK2
T3 construct: JAK2 (a.a. 828-1132); His tag (N); made in house; host or cells: insect cells (baculovirus)
Procedure, shortened: as §1

[4] = biological target: T4, Recombinant Human Anaplastic Lymphoma Kinase (Homo sapiens, UniProt Q9UM73); test: ALK HTRF kinase assay
T4 construct: purchased Invitrogen, Carlsbad, Calif
Procedure, shortened: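 IC50 was obtained from a logistic fit of signal versus log inhibitor concentration, using pre- and post-transition baselines and a Hill slope. The signal reported tyrosine phosphorylation of a biotinylated peptide by recombinant human kinase, detected as Eu-to-APC energy transfer.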

[5] = method AA1 (90 μM ATP) or AA2 (1000 μM ATP), not stated per value
[6] = method AA1 (3 μM ATP) or AA2 (1000 μM ATP), not stated per value
[7] = method AA1 (30 μM ATP) or AA2 (1000 μM ATP), not stated per value
[8] = compound at 500 nM or 1 mM, 90 μM ATP
[9] = compound at a concentration of 500 nM or 1 mM (not specified), cells shown as percentage
[10] = Table B1, cells without percent sign

T2 sequence (P52333 781-1124): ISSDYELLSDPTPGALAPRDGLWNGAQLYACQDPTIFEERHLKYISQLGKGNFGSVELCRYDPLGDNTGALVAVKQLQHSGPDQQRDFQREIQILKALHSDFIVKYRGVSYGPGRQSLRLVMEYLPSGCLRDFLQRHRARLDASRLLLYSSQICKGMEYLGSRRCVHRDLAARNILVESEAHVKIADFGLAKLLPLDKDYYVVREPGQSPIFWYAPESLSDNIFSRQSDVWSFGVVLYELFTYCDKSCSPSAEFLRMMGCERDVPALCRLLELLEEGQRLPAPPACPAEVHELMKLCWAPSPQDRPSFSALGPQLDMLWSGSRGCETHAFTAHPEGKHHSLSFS
T4 sequence (Q9UM73 19-1620): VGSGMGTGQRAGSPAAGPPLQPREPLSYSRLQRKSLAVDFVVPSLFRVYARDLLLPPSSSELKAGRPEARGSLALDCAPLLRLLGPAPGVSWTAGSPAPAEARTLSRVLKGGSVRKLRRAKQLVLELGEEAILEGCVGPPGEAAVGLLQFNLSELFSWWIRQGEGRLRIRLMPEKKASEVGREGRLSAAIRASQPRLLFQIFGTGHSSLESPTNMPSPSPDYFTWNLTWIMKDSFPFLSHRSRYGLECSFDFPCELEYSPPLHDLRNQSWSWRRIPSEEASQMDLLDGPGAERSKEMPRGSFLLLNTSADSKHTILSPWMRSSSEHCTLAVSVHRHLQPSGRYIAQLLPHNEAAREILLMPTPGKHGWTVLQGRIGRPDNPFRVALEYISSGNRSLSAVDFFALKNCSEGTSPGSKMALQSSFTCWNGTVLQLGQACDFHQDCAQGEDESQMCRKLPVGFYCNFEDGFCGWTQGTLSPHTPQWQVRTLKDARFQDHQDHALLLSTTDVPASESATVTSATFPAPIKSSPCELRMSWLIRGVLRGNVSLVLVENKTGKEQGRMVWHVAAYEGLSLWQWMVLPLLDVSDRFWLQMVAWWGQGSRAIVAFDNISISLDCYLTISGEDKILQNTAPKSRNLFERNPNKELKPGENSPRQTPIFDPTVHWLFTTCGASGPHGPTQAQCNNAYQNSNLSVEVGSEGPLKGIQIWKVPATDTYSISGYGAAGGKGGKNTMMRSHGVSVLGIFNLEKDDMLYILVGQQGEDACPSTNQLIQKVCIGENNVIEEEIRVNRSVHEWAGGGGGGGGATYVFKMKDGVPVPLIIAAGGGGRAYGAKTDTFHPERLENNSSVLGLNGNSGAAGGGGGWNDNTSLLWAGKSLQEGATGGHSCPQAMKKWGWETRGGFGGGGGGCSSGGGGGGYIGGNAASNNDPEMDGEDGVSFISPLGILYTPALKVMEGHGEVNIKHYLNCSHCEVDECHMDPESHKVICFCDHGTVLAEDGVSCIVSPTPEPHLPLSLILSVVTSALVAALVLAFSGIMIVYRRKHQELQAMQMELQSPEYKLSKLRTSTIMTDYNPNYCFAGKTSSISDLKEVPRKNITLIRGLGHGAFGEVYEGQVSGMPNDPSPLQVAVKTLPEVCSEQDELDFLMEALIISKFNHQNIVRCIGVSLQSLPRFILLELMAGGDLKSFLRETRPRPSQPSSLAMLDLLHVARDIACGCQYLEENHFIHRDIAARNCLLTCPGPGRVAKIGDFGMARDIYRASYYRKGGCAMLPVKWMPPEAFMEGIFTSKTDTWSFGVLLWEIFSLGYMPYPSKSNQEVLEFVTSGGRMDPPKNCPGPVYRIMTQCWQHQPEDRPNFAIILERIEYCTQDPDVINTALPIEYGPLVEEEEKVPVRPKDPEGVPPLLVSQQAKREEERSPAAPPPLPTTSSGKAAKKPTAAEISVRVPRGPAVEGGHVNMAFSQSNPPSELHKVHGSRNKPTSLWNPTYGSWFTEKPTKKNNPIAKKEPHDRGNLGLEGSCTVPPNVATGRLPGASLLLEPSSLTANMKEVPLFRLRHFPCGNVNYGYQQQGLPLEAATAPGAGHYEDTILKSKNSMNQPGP
T1 sequence (P23458 849-1154): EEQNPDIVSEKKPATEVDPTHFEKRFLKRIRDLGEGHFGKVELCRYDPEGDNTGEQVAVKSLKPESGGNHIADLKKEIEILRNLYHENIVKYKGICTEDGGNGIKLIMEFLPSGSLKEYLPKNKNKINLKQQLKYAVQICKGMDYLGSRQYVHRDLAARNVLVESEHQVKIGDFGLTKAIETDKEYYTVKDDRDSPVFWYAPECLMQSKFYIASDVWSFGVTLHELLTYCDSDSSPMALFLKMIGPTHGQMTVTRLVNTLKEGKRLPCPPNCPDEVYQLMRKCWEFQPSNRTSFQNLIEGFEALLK
Sequence of TYK2 (P29597 whole entry): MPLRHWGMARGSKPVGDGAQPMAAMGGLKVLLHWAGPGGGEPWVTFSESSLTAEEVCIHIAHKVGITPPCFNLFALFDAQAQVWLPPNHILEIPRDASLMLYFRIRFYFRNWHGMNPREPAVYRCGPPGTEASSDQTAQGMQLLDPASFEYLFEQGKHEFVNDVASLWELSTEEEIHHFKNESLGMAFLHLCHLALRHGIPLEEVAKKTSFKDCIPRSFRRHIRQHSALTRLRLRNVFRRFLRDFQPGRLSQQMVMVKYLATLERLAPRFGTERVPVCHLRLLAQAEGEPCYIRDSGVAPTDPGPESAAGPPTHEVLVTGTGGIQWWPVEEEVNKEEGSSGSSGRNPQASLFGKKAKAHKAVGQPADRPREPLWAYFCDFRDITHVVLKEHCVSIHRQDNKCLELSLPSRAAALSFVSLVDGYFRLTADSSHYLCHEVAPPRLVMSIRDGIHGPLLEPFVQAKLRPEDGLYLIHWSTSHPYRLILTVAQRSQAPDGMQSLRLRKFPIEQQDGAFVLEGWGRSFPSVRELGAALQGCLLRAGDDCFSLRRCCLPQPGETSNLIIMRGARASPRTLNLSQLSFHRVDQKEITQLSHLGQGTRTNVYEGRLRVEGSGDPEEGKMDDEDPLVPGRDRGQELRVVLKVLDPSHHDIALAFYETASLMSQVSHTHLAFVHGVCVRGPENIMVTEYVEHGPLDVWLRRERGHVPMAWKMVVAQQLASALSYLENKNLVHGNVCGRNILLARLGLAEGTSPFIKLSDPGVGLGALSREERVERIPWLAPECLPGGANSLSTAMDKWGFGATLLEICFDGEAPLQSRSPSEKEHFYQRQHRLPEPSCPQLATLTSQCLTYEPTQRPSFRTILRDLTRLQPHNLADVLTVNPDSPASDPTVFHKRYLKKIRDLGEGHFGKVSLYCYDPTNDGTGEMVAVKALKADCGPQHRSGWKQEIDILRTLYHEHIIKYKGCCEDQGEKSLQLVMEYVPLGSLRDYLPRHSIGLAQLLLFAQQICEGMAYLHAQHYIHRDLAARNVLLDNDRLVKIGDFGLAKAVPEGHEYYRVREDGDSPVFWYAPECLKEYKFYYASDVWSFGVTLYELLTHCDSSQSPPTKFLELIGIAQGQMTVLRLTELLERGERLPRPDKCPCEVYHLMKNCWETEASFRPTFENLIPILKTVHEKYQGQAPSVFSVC
T3 sequence (O60674 828-1132): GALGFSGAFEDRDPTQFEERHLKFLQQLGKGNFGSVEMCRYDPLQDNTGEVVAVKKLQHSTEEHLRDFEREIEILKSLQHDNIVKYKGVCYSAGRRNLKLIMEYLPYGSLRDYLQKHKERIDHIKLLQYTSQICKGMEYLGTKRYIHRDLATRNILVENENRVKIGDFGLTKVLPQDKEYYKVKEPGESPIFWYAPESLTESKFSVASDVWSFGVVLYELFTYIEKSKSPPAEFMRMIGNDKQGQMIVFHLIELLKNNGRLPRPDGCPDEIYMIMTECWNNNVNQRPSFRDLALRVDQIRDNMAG

IC50 [1, 5] [nM] | IC50 (TYK2) [nM] | IC50 [2, 6] [nM] | IC50 [3, 7] [nM] | ALK % of inhibition at a concentration of 500 nM or 1 mM [4, 8] [%] | IC50 ([1]; Table B1) [nM] | IC50 (TYK2; Table B1) [nM] | IC50 ([2]; Table B1) [nM] | IC50 ([3]; Table B1) [nM] | SMILES | other results
 |  |  |  |  | 4.8 | 62 | 359 | 5.9 | Oc1ccnc(Nc2ccc3cc2CCc2cccc(c2)Nc2ncc(Cl)c(n2)N3)n1 [Example B277, 2-{[6-Chloro-2,4,8,22-tetraazatetracyclo[14.3.1.1(3,7).1(9,13)]docosa-1(20),3(22),4,6,9(21),10,12,16,18-nonaen-12-yl]amino}pyrimidin-4-ol bis(trifluoroacetate)] | ALK % of inhibition at a concentration of 500 nM or 1 mM [4, 9]: 54%
 |  |  |  |  | 1.6 | 2.1 | 23 | 4.6 | O=C(Nc1ccccc1CCl)Nc1ccc2cc1CCc1cccc(c1)Nc1ncc(Cl)c(n1)N2 [Example B108, N-[2-(Chloromethyl)phenyl]-N′-[6-chloro-2,4,8,22-tetraazatetracyclo[14.3.1.1(3,7).1(9,13)]docosa-1(20),3(22),4,6,9(21),10,12,16,18-nonaen-12-yl]urea trifluoroacetate] | ALK % of inhibition at a concentration of 500 nM or 1 mM [4, 9]: 21%
21 | 183 | 58 | 24 | 34 |  |  |  |  | O=C(Nc1ccc2cc1CCc1cccc(c1)Nc1ncc(Cl)c(n1)N2)C1CCN(S(=O)(=O)c2ccccc2)CC1 [Example A42, N-[6-Chloro-2,4,8,22-tetraazatetracyclo[14.3.1.1(3,7).1(9,13)]docosa-1(20), 3(22),4,6,9(21),10,12,16,18-nonaen-12-yl]-1-(phenylsulfonyl)piperidine-4-carboxamide trifluoroacetate] | 
19 | 77 | 66 | 36 | 39 |  |  |  |  | CSc1ccccc1NC(=O)N1CCC(C(=O)Nc2ccc3cc2CCc2cccc(c2)Nc2ncc(Cl)c(n2)N3)CC1 [Example A39, N(4)-[6-Chloro-2,4,8,22-tetraazatetracyclo[14.3.1.1(3,7).1(9,13)]docosa-1(20),3(22),4,6,9(21),10,12,16,18-nonaen-12-yl]-N(1)-[2-(methylthio)phenyl]piperidine-1,4-dicarboxamide trifluoroacetate] | 
 |  |  |  |  | 2.7 | 6.4 | 27 | 2.6 | O=C(Nc1ccc(Cl)cc1)Nc1ccc2cc1CCc1cccc(c1)Nc1ncc(Cl)c(n1)N2 [Example B86, N-(4-Chlorophenyl)-N′-[6-chloro-2,4,8,22-tetraazatetracyclo[14.3.1.1(3,7).1(9,13)]docosa-1(20),3(22),4,6,9(21),10,12,16,18-nonaen-12-yl]urea trifluoroacetate] | IC50 [4, 10]: > 1000 nM
 |  |  |  |  | 4.9 | 26 | 81 | 11 | CC(C)c1ccccc1NC(=O)Nc1ccc2cc1CCc1cccc(c1)Nc1ncc(Cl)c(n1)N2 [Example B104, N-[6-Chloro-2,4,8,22-tetraazatetracyclo[14.3.1.1(3,7).1(9,13)]docosa-1(20), 3(22),4,6,9(21),10,12,16,18-nonaen-12-yl]-N′-(2-isopropylphenyl)urea trifluoroacetate] | ALK % of inhibition at a concentration of 500 nM or 1 mM [4, 9]: 55%
 |  |  |  |  | 5.9 | 14 | 1.5 | 2 | CCCC(=O)Nc1ccc2cc1CCc1cccc(c1)Nc1ncc(Cl)c(n1)N2 [Example B56, N-[6-Chloro-2,4,8,22-tetraazatetracyclo[14.3.1.1(3,7).1(9,13)]docosa-1(20), 3(22),4,6,9(21),10,12,16,18-nonaen-12-yl]butanamide trifluoroacetate] | IC50 [4, 10]: 720 nM

Second part, the compound before the results:

SMILES | IC50 [1, 5] [nM] | IC50 (TYK2) [nM] | IC50 [2, 6] [nM] | IC50 [3, 7] [nM] | ALK % of inhibition at a concentration of 500 nM or 1 mM [4, 8] [%] | IC50 ([1]; Table B1) [nM] | IC50 (TYK2; Table B1) [nM] | IC50 ([2]; Table B1) [nM] | IC50 ([3]; Table B1) [nM] | other results
O=C(CC1CCN(c2nc3cccnc3o2)CC1)Nc1ccc2cc1CCc1cncc(c1)Nc1ncc(Cl)c(n1)N2 [Example A158, N-[6-Chloro-2,4,8,18,22-pentaazatetracyclo[14.3.1.1(3,7).1(9,13)]docosa-1(20),3(22),4,6,9(21),10,12,16,18-nonaen-12-yl]-2-(1-[1,3]oxazolo[5,4-b]pyridin-2-ylpiperidin-4-yl)acetamide tris(trifluoroacetate)] | 11 | 675 | > 10000 | 244 | 18 |  |  |  |  | 
Cc1cc(C(=O)N2CC[C@@H](C(=O)Nc3ccc4cc3CCc3cccc(c3)Nc3ncc(Cl)c(n3)N4)C2)no1 [Example A122, (3R)—N-[6-Chloro-2,4,8,22-tetraazatetracyclo[14.3.1.1(3,7).1(9,13)]docosa-1(20),3(22),4,6,9(21),10,12,16,18-nonaen-12-yl]-1-[(5-methylisoxazol-3-yl)carbonyl]pyrrolidine-4-carboxamide trifluoroacetate] | 7.2 | 17 | 7.3 | 3.9 | 52 |  |  |  |  | 
O=C(Nc1ccc2cc1CCc1cncc(c1)Nc1ncc(Cl)c(n1)N2)N1CCN(C(=O)c2ccccc2)CC1 [Example B286, 4-Benzoyl-N-[6-chloro-2,4,8,18,22-pentaazatetracyclo[14.3.1.1(3,7).1(9,13)]docosa-1(20),3(22),4,6,9(21),10,12,16,18-nonaen-12-yl]piperazine-1-carboxamide bis(trifluoroacetate)] |  |  |  |  |  | 43 | > 200 | > 200 | > 200 | ALK % of inhibition at a concentration of 500 nM or 1 mM [4, 9]: 51%
Cc1n[nH]c(C)c1-c1cc2cc(c1)Nc1ncc(Cl)c(n1)Nc1cccc(c1)OCC2 [Example D30, 6-Chloro-19-(3,5-dimethyl-1H-pyrazol-4-yl)-14-oxa-2,4,8,23-tetraazatetracyclo[15.3.1.1(3,7).1(9,13)]tricosa-1(21),3(23),4,6,9(22),10,12,17,19-nonaene bis(trifluoroacetate)] |  |  |  |  |  |  |  |  |  | IC50 ([1]; Table D1): 4.1 nM; IC50 (TYK2; Table D1): 15 nM; IC50 ([2]; Table D1): 49 nM; IC50 ([3]; Table D1): 0.6 nM; IC50 ([4]; Table D1, 90 μM ATP): 157 nM
N#CC1(c2ccccc2)CCN(C(=O)Nc2ccc3cc2CCc2cncc(c2)Nc2ncc(Cl)c(n2)N3)CC1 [Example B322, N-[6-Chloro-2,4,8,18,22-pentaazatetracyclo[14.3.1.1(3,7).1(9,13)]docosa-1(20),3(22),4,6,9(21),10,12,16,18-nonaen-12-yl]-4-cyano-4-phenylpiperidine-1-carboxamide bis(trifluoroacetate)] |  |  |  |  |  | 32 | 160 | > 400 | 313 | ALK % of inhibition at a concentration of 500 nM or 1 mM ([4]; percentage inhibition of the example compound at a concentration of 500 nM or 1 mM (not specified which)): 74%
COc1ccc(NC(=O)N2CCC(CC(=O)Nc3ccc4cc3CCc3cncc(c3)Nc3ncc(Cl)c(n3)N4)CC2)cc1 [Example A154, 4-(2-{[6-Chloro-2,4,8,18,22-pentaazatetracyclo[14.3.1.1(3,7).1(9,13)]docosa-1(20),3(22),4,6,9(21),10,12,16,18-nonaen-12-yl]amino}-2-oxoethyl)-N-(4-methoxyphenyl)piperidine-1-carboxamide bis(trifluoroacetate)] | 0.6 | 3.1 | > 100 | 2.6 | 51 |  |  |  |  | 
CC(=O)N1CCCC(C(=O)Nc2ccc3cc2CCc2cccc(c2)Nc2ncc(Cl)c(n2)N3)C1 (centres unmarked) [Example A47, 1-Acetyl-N-[6-chloro-2,4,8,22-tetraazatetracyclo[14.3.1.1(3,7).1(9,13)]docosa-1(20),3(22),4,6,9(21),10,12,16,18-nonaen-12-yl]piperidine-3-carboxamide trifluoroacetate] | 17 | 39 | 25 | 6.9 | 26 |  |  |  |  | 
CC(=O)N1CCC(CC(=O)Nc2ccc3cc2CCc2cncc(c2)Nc2ncc(Cl)c(n2)N3)CC1 [Example A76, 2-(1-Acetylpiperidin-4-yl)-N-[6-chloro-2,4,8,18,22-pentaazatetracyclo[14.3.1.1(3,7).1(9,13)]docosa-1(20),3(22),4,6,9(21),10,12,16,18-nonaen-12-yl]acetamide bis(trifluoroacetate)] | 2 | 3.9 | 124 | 4.1 | 21 |  |  |  |  | 
O=S1(=O)Cc2cccc(c2)Nc2nc(ncc2Cl)Nc2cccc1c2 [Example D4, 6-Chloro-15-thia-2,4,8,22-tetraazatetracyclo[14.3.1.1(3,7).1(9,13)]docosa-1(20),3(22),4,6,9(21),10,12,16,18-nonaene 15,15-dioxide trifluoroacetate] |  |  |  |  |  |  |  |  |  | IC50 ([1]; Table D1): 91 nM; IC50 (TYK2; Table D1): 50 nM; IC50 ([2]; Table D1): 25 nM; IC50 ([3]; Table D1): 16 nM; IC50 ([4]; Table D1, 90 μM ATP): 774 nM
